Results taken from patent US6737383B1, “Herbicidal oxadiazolidines” (priority 1999, dated 2004).

How the values were obtained:
sugar beet = assay: Test B pre/postemergence sugar beet; type: in vivo, Beta vulgaris
Method in brief: (§1)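 Test chemicals in a non-phytotoxic solvent mixture with surfactant were sprayed preemergence onto planted seeds and postemergence onto plants 2 to 18 cm tall (1- to 4-leaf stage). After twelve to sixteen days in a greenhouse, injury was visually rated against untreated controls from 0 (no effect) to 10 (complete control).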

smallflower flatsedge = assay: Test B flood test smallflower flatsedge; type: in vivo, Cyperus difformis
Method in brief: (§2)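 Each value is a visual injury score relative to controls, with 10 meaning complete control and 0 no effect. Evaluation took place twelve to sixteen days after the 2-leaf-stage plants were treated and kept in the greenhouse.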

corn = assay: Test B pre/postemergence corn; type: in vivo, Zea mays
Method in brief: as §1

purple nutsedge = assay: Test B pre/postemergence purple nutsedge; type: in vivo, Cyperus rotundus
Method in brief: as §1

bedstraw = assay: Test B pre/postemergence bedstraw; type: in vivo, Galium aparine
Method in brief: as §1

duck salad = assay: Test B flood test duck salad; type: in vivo, Heteranthera limosa
Method in brief: as §2

soybean = assay: Test B pre/postemergence soybean; type: in vivo, Glycine max
Method in brief: as §1

velvetleaf = assay: Test B pre/postemergence velvetleaf; type: in vivo, Abutilon theophrasti
Method in brief: as §1

blackgrass = assay: Test B pre/postemergence blackgrass; type: in vivo, Alopecurus myosuroides
Method in brief: as §1

rape = assay: Test B pre/postemergence rape; type: in vivo, Brassica napus
Method in brief: as §1

cocklebur = assay: Test B pre/postemergence cocklebur; type: in vivo, Xanthium strumarium
Method in brief: as §1

surinam grass = assay: Test B pre/postemergence surinam grass; type: in vivo, Brachiaria decumbens
Method in brief: as §1

rice = assay: Test B flood test rice; type: in vivo, Oryza sativa
Method in brief: as §2

wheat = assay: Test B pre/postemergence wheat; type: in vivo, Triticum aestivum
Method in brief: as §1

wild oat = assay: Test B pre/postemergence wild oat; type: in vivo, Avena fatua
Method in brief: as §1

bamyardgrass = assay: Test B flood test barnyardgrass; type: in vivo, Echinochloa crus-galli
Method in brief: as §2

crabgrass = assay: Test B pre/postemergence crabgrass; type: in vivo, Digitaria sanguinalis
Method in brief: as §1

[1] = Postemergence, Rate 62 g/ha, scale 0 to 10, 0 is no effect, 10 is complete control
[2] = Postemergence, Rate 125 g/ha, scale of 0 to 10 where 0 is no effect and 10 is complete control
[3] = Postemergence, Rate 250 g/ha, scale of 0 to 10, 0 is no effect, 10 is complete control
[4] = Preemergence, Rate 62 g/ha, scale 0 to 10 (0 no effect, 10 complete control)
[5] = Preemergence, Rate 125 g/ha, scale of 0 to 10 where 0 is no effect and 10 is complete control
[6] = Preemergence, Rate 250 g/ha, scale 0 to 10 (0 no effect, 10 complete control)
[7] = Preemergence, Rate 500 g/ha, scale of 0 to 10 where 0 is no effect and 10 is complete control
[8] = Rate 62 g/ha, flood test species, Pre-emergence, visual evaluation after twelve to sixteen days
[9] = Rate 125 g/ha, under heading Pre-emergence, flood test species, visual evaluation after twelve to sixteen days
[10] = Rate 250 g/ha, Pre-emergence (flood test species), scale 0 to 10, 0 is no effect, 10 is complete control
[11] = Rate 500 g/ha, Pre-emergence section of Table B, 0 to 10 scale (0 no effect, 10 complete control)
[12] = Postemergence, Rate 500 g/ha, scale of 0 to 10 where 0 is no effect and 10 is complete control

CC(C)N(C(=O)n1oc(=O)n(CC2CCCCO2)c1=O)c1ccc(F)cc1 (centres unmarked) [Compound 624]
9: Plant response rating, Blackgrass (blackgrass; [12]) | Plant response rating, Blackgrass (blackgrass; [7]) | Plant response rating, Crabgrass (crabgrass; [6]) | Plant response rating, Crabgrass (crabgrass; [7])
7: Plant response rating, Sugarbeets (sugar beet; [6]) | Soybean plant response rating (soybean; [3]) | Plant response rating, Soybean (soybean; [7]) | Plant response rating, Rape (rape; [7]) | Plant response rating, B. signalgrass (surinam grass; [2]) | B. signalgrass plant response rating (surinam grass; [3]) | Plant response rating, Wheat (wheat; [7]) | Plant response rating, Crabgrass (crabgrass; [2]) | Crabgrass plant response rating (crabgrass; [3]) | Crabgrass plant response rating (crabgrass; [4])
2: Corn plant response rating (corn; [3]) | Plant response rating, Corn (corn; [6]) | Plant response rating, Soybean (soybean; [1]) | Cocklebur plant response rating (cocklebur; [3]) | Wild oats plant response rating (wild oat; [4])
0: Plant response rating, Sugarbeets (sugar beet; [1]) | Plant response rating, Sugarbeets (sugar beet; [2]) | Sugarbeets plant response rating (sugar beet; [3]) | Sugarbeets plant response rating (sugar beet; [4]) | Plant response rating, S. Flatsedge (0 to 10 scale, 0 is no effect, 10 is complete control) (smallflower flatsedge; [8]) | S. Flatsedge plant response rating (0 to 10 scale, 0 is no effect, 10 is complete control) (smallflower flatsedge; [9]) | S. Flatsedge plant response rating (smallflower flatsedge; [10]) | S. Flatsedge plant response rating (smallflower flatsedge; [11]) | Plant response rating, Corn (corn; [1]) | Plant response rating, Corn (corn; [2]) | Corn plant response rating (corn; [4]) | Corn plant response rating (corn; [5]) | Plant response rating, Nutsedge (purple nutsedge; [1]) | Plant response rating, Nutsedge (purple nutsedge; [2]) | Nutsedge plant response rating (purple nutsedge; [3]) | Nutsedge plant response rating (purple nutsedge; [4]) | Nutsedge plant response rating (purple nutsedge; [5]) | Plant response rating, Nutsedge (purple nutsedge; [6]) | Plant response rating, Nutsedge (purple nutsedge; [7]) | Plant response rating, Bedstraw (bedstraw; [1]) | Bedstraw plant response rating (bedstraw; [4]) | Bedstraw plant response rating (bedstraw; [5]) | Plant response rating, Bedstraw (bedstraw; [6]) | Plant response rating, Ducksalad (0 to 10 scale, 0 is no effect, 10 is complete control) (duck salad; [8]) | Ducksalad plant response rating (0 to 10 scale, 0 is no effect, 10 is complete control) (duck salad; [9]) | Ducksalad plant response rating (duck salad; [10]) | Ducksalad plant response rating (duck salad; [11]) | Soybean plant response rating (soybean; [4]) | Soybean plant response rating (soybean; [5]) | Plant response rating, Velvetleaf (velvetleaf; [1]) | Plant response rating, Velvetleaf (velvetleaf; [2]) | Velvetleaf plant response rating (velvetleaf; [3]) | Velvetleaf plant response rating (velvetleaf; [4]) | Velvetleaf plant response rating (velvetleaf; [5]) | Plant response rating, Rape (rape; [1]) | Plant response rating, Rape (rape; [2]) | Rape plant response rating (rape; [3]) | Rape plant response rating (rape; [4]) | Rape plant response rating (rape; [5]) | Plant response rating, Cocklebur (cocklebur; [1]) | Plant response rating, Cocklebur (cocklebur; [2]) | Cocklebur plant response rating (cocklebur; [4]) | Cocklebur plant response rating (cocklebur; [5]) | Plant response rating, Cocklebur (cocklebur; [6]) | Plant response rating, Cocklebur (cocklebur; [7]) | Plant response rating, Rice (0 to 10 scale, 0 is no effect, 10 is complete control) (rice; [8]) | Rice plant response rating (0 to 10 scale, 0 is no effect, 10 is complete control) (rice; [9]) | Rice plant response rating (rice; [10]) | Rice plant response rating (rice; [11]) | Plant response rating, Wheat (wheat; [1]) | Plant response rating, Wheat (wheat; [2]) | Wheat plant response rating (wheat; [3]) | Wheat plant response rating (wheat; [4]) | Wheat plant response rating (wheat; [5]) | Plant response rating, Wild oats (wild oat; [1]) | Plant response rating, Wild oats (wild oat; [2]) | Wild oats plant response rating (wild oat; [3]) | Plant response rating, Barnyardgrass (0 to 10 scale, 0 is no effect, 10 is complete control) (bamyardgrass; [8]) | Barnyardgrass plant response rating (0 to 10 scale, 0 is no effect, 10 is complete control) (bamyardgrass; [9]) | Barnyardgrass plant response rating (bamyardgrass; [10]) | Barnyardgrass plant response rating (bamyardgrass; [11])
8: Plant response rating, Sugarbeets (sugar beet; [7]) | Plant response rating, Velvetleaf (velvetleaf; [7]) | Blackgrass plant response rating (blackgrass; [3]) | Blackgrass plant response rating (blackgrass; [5]) | Plant response rating, Blackgrass (blackgrass; [6]) | Plant response rating, B. signalgrass (surinam grass; [12]) | Plant response rating, B. signalgrass (surinam grass; [7])
4: Plant response rating, Blackgrass (blackgrass; [1]) | Plant response rating, B. signalgrass (surinam grass; [1])
3: Plant response rating, Nutsedge (purple nutsedge; [12]) | Plant response rating, Bedstraw (bedstraw; [7]) | Plant response rating, Soybean (soybean; [2]) | Plant response rating, Soybean (soybean; [6]) | Plant response rating, Rape (rape; [12]) | B. signalgrass plant response rating (surinam grass; [4])
6: Plant response rating, Corn (corn; [7]) | Plant response rating, Cocklebur (cocklebur; [12]) | B. signalgrass plant response rating (surinam grass; [5]) | Plant response rating, B. signalgrass (surinam grass; [6]) | Plant response rating, Wheat (wheat; [6]) | Wild oats plant response rating (wild oat; [5]) | Plant response rating, Wild oats (wild oat; [6]) | Plant response rating, Wild oats (wild oat; [7]) | Plant response rating, Crabgrass (crabgrass; [1])
1: Sugarbeets plant response rating (sugar beet; [5]) | Plant response rating, Velvetleaf (velvetleaf; [6]) | Blackgrass plant response rating (blackgrass; [4]) | Plant response rating, Rape (rape; [6])
5: Plant response rating, Corn (corn; [12]) | Plant response rating, Blackgrass (blackgrass; [2])
